Reference: patent publication US20240270821A1, “GIP/GLP1/GCG TRI-RECEPTOR AGONISTS AND USES THEREOF” (priority 2023, published 2024)
Starred links: 1 amine or outer side, 2 acyl side, 3 side chain; linkers in the order of their positions; H or OH if unused. Non-standard residues stand in square brackets, D forms with d. Groups on a side chain read outwards from the residue. *: point of attachment. C18 diacid = O=C(O)CCCCCCCCCCCCCCCCC(=O)*; αMePhe(2-F) = C[C@](N)(Cc1ccccc1F)C(=O)O; γGlu = O=C(O)[C@H](CCC(=O)[*:2])N[*:1]; αMe4Pal = C[C@](N)(Cc1ccncc1)C(=O)O; αMeY = C[C@](N)(Cc1ccc(O)cc1)C(=O)O; 4Pal = N[C@@H](Cc1ccncc1)C(=O)O; αMeL = CC(C)C[C@](C)(N)C(=O)O; αMeS = C[C@](N)(CO)C(=O)O; Orn = NCCC[C@H](N)C(=O)O; AEEA = NCCOCCOCC(=O)O; Aib = CC(C)(N)C(=O)O

Columns and labels:
[1] = target: human GcgR (Homo sapiens, UniProt P47871); assay: Functional cAMP activity in the presence of 1% HSA; type: cell-based; details: read-out: cAMP Rel EC50, hGcgR
[2] = Pepsin stability assay in simulated gastric fluid; type: in vitro ADME; details: pH 1.2, % Intact (SD)
Outline: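 Peptides (10 mg/mL stock in 50 mM Tris pH 8.0) incubated with pepsin A in simulated gastric fluid at 37° C. with shaking. Aliquots taken at time intervals were quenched with 100 mM ammonium bicarbonate pH 9, and intact peptide remaining was quantified by LC/MS.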

[3] = target: T1, hGLP-1R (Homo sapiens, UniProt P43220); assay: Functional cAMP activation in the presence of 0.1% casein (no HSA); type: cell-based; details: read-out: Relative cAMP EC50, hGLP-1R;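 also: intracellular cAMP rise after 30 min at 37 °C read by HTRF, normalized between buffer only (0%) and maximal control ligand (100%), four-parameter variable-slope fit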
[4] = Body weight in diet-induced obese C57BL/6 mice; type: in vivo; details: 10 nmol/kg SC QD, percent of starting weight, DIO mice, mean ± SEM n=5
Outline: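 Daily weighing gave body weight as percent of starting value (mean±SEM, n=5) over 9-16 days of SC dosing, once daily or every 3 days, shortly before lights-off. Animals were weight-randomized male C57BL/6 DIO mice, 41-50 g, fed ad libitum on a calorie-rich diet.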

[5] = target: T1, hGLP-1R; assay: Functional cAMP activity in the presence of 1% HSA; type: cell-based; details: read-out: cAMP Rel EC50, hGLP-1R
[6] = in vivo; parameters: species or system cynomolgus monkeys; details: both sexes, cynomolgus monkey, po; for bioavailability: 10 mg; for AUC(0-inf) / CL/F / Cmax / Tmax / half-life: 300 mg
Description: (§1) A study is designed to evaluate the oral bioavailability of Example polypeptides in cynomolgus monkeys. […] Standards and controls are prepared in cynomolgus monkey plasma, and any dilutions required to bring samples into the quantitative range are also performed in control cynomolgus monkey plasma. To control assay variability, an internal standard (IS) is added to all the standards and samples. The Examples and IS are extracted from 100% monkey plasma (50 μL) by protein precipitation using isopropyl alcohol and methanol (50:50 v/v). The samples are then centrifuged (3000 rpm for 10 minutes) and the supernatant is transferred to a Siricco Protein Precipitation Plate. The samples are loaded on a Sep-Pak tC18 SPE microelution plate that is conditioned with 2% formic acid in acetonitrile and water. The compounds are then washed with 2% formic acid in water and eluted using 2% formic acid in acetonitrile into a plate containing 5× Invitrosol and 1% formic acid in water prior to injecting an aliquot (10 μL) on to Xselect CSH C18, 3.5 μm, 2.1×20 mm for LC/MS analysis.
[…] Blood samples are collected up to 504 hours post-dose. Plasma is harvested from blood samples by centrifugation and stored frozen (−70° C.) until analysis. Plasma concentrations of the molecules are detected using the bioanalytical method described above.

[7] = target: hGcgR (Homo sapiens, UniProt P47871); assay: Functional cAMP activation in the presence of 0.1% casein (no HSA); type: cell-based; details: read-out: Relative cAMP EC50, hGcgR;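 also: intracellular cAMP rise after 30 min at 37 °C, read by HTRF against a cAMP standard curve, scaled from buffer only (0%) to maximal control ligand response (100%)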
[8] = target: human GLP1-R (Homo sapiens, UniProt P43220); assay: GLP1-R internalization assay in HEK293 cells; type: cell-based; details: for EC50: HEK293 cells expressing SNAP-GLP-1R, read-out: GLP1R Internalization EC50; for Internalization % TOP: normalized to maximum concentration of GLP-1 (100%)
[9] = target: T2, hGIPR (Homo sapiens, UniProt P48546); assay: Functional cAMP activation in the presence of 0.1% casein (no HSA); type: cell-based; details: read-out: Relative cAMP EC50, hGIPR;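 also: intracellular cAMP rise after 30 min at 37 °C read by HTRF against a standard curve, scaled between buffer alone (0%) and top control ligand concentration (100%), four-parameter fit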
T2 sequence (P48546 22-466): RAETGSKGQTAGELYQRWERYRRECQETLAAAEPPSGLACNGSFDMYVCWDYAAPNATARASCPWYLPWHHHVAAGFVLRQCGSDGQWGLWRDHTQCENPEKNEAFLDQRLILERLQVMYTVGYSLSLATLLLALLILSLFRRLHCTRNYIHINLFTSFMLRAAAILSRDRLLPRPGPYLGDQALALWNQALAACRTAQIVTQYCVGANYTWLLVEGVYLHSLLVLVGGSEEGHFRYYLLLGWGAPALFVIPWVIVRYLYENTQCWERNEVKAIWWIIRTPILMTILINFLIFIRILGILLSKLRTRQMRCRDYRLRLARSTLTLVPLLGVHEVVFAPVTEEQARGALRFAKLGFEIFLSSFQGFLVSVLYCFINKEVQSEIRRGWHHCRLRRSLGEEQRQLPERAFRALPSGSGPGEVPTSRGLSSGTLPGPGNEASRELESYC

[10] = in vivo; parameters: species or system cynomolgus monkeys; details: both sexes, cynomolgus monkey, iv, 10 nmol/kg
Description: as §1
Blood samples are collected over 504 hours. Plasma is harvested from blood samples by centrifugation and stored frozen (−70° C.) until analysis. Plasma concentrations of the molecules are detected using the bioanalytical method described above.

[11] = target: T2, hGIPR; assay: Functional cAMP activity in the presence of 1% HSA; type: cell-based; details: read-out: cAMP Rel EC50, hGIPR
[12] = system: Intestinal organoid from Göttingen minipig jejunum tissue, 2D monolayer; assay: Cell based in vitro permeability (Papp) assay; type: in vitro ADME
Outline: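 Papp calculated from LC/MS peptide levels in apical and basal compartments. Basal sampling at 20 min with C10 present, across monolayers grown from dissociated minipig jejunal organoids in transwells.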

human GcgR, sequence (P47871 26-477): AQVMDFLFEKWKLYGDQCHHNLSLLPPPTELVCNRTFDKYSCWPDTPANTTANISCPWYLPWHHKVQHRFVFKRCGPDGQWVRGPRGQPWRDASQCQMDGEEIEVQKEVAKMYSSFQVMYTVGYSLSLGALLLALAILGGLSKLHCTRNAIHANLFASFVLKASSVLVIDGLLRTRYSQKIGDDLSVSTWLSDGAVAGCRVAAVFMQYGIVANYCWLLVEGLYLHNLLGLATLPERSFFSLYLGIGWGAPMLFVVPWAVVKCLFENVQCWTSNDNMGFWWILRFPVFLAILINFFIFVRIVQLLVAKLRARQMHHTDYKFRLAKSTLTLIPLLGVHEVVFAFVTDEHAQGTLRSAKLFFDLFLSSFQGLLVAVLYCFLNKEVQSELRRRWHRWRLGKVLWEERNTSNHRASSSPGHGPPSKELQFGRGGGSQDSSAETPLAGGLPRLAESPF
hGcgR, sequence (P47871 26-477): as above
human GLP1-R, sequence (P43220 24-463): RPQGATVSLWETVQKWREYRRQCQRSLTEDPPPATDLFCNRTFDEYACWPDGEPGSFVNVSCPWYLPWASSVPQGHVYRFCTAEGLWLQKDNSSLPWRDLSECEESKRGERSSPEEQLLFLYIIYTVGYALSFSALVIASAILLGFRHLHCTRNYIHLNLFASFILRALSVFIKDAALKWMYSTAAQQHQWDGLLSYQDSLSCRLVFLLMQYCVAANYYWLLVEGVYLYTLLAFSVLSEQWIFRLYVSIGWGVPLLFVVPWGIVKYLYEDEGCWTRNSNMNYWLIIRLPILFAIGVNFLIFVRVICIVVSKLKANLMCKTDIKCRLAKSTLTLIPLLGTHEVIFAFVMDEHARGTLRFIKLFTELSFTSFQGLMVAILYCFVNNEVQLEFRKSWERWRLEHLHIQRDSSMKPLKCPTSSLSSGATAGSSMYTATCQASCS
T1 sequence (P43220 24-463): as above

| Molecule | EC50 [1] [nM] | remaining at 0.25 h, 0.4 mg/mL [2] [%] | EC50 [3] [nM] | Body weight (%) ([4]; 14 days) | EC50 [5] [nM] | bioavailability [6] [%] | AUC(0-inf) [6] [µM·h] | CL/F [6] [mL/min/kg] | Cmax [6] [nM] | Tmax [6] [h] | half-life [6] [h] | EC50 [7] [nM] | EC50 [8] [nM] | EC50 [9] [nM] | AUC(0-inf) [10] [µM·h] | clearance [10] [mL/min/kg] | half-life [10] [h] | EC50 [11] [nM] | Relative Papp (Compared to internal standard) [12] | Internalization % TOP [8] [%] | also measured |
| --- | --- | --- | --- | --- | --- | --- | --- | --- | --- | --- | --- | --- | --- | --- | --- | --- | --- | --- | --- | --- | --- |
| H-Y[Aib]QGT[αMePhe(2-F)]TSD[4Pal][αMeS]I[αMeL]LD[Orn]K([AEEA-γGlu-C18 diacid])AQ[αMe4Pal]EFI[dE][αMeY]LIEGGPSSGAPPPSGGGE-NH2 [Example 741] | 200 | 111 | 0.239 | 59.42 ± 2.94 | 32.4 | 0.8 | 4.2 | 2.28 | 95.8 | 3.75 | 58.1 | 2.01 | 50.1 | 0.00612 | 9.55 ± 2.28 | 0.0182 | 32.1 ± 4.22 | 0.817 |  |  | remaining at 0.5 h, 0.4 mg/mL [2]: 104%; remaining at 1 h, 0.4 mg/mL [2]: 105% |
| CC[C@H](C)[C@H](NC(=O)[C@H](CC(C)C)NC(=O)[C@](C)(Cc1ccc(O)cc1)NC(=O)[C@@H](CCC(=O)O)NC(=O)[C@@H](NC(=O)[C@H](Cc1ccccc1)NC(=O)[C@H](CCC(=O)O)NC(=O)[C@](C)(Cc1ccncc1)NC(=O)[C@H](CCC(N)=O)NC(=O)[C@H](C)NC(=O)[C@H](CCCCNC(=O)COCCOCCNC(=O)CC[C@H](NC(=O)CCCCCCCCCCCCCCCCC(=O)O)C(=O)O)NC(=O)[C@H](CCCN)NC(=O)[C@H](CC(=O)O)NC(=O)[C@H](CC(C)C)NC(=O)[C@](C)(CC(C)C)NC(=O)[C@@H](NC(=O)[C@](C)(CO)NC(=O)[C@H](Cc1ccncc1)NC(=O)[C@H](CC(=O)O)NC(=O)[C@H](CO)NC(=O)[C@@H](NC(=O)[C@](C)(Cc1ccccc1F)NC(=O)[C@@H](NC(=O)CNC(=O)[C@H](CCC(N)=O)NC(=O)C(C)(C)NC(=O)[C@@H](N)Cc1ccc(O)cc1)[C@@H](C)O)[C@@H](C)O)[C@@H](C)CC)[C@@H](C)CC)C(=O)N[C@@H](CCC(=O)O)C(=O)NCC(=O)NCC(=O)N1CCC[C@H]1C(=O)N[C@@H](CO)C(=O)N[C@@H](CO)C(=O)NCC(=O)N[C@@H](C)C(=O)N1CCC[C@H]1C(=O)N1CCC[C@H]1C(=O)N1CCC[C@H]1C(=O)N[C@@H](CO)C(=O)NCC(=O)N[C@@H](CO)C(N)=O [Example 699] | 144 | 97.9 | 0.196 | 56.85 ± 2.42 | 25.3 | 1.3 | 7.15 | 1.51 | 187 | 2.75 | 34.3 | 1.35 | 14.9 | 0.00663 | 9.23 ± 1.64 | 0.0185 | 50.8 ± 13.7 | 0.566 | 0.51 | 102 | Body weight (%) ([4]; 7 days): 68.34 ± 0.85 % |
| H-Y[Aib]QGT[αMePhe(2-F)]TSD[4Pal]SI[αMeL]LD[Orn]K([γGlu-γGlu-C18 diacid])AQ[αMe4Pal][Orn]FI[dE][αMeY]LIEGGPSSGEPPPETE-NH2 [Example 686] | 169 |  | 0.298 | 72.73 ± 3.65 | 19.1 | 3.6 | 14.2 | 2.93 | 249 | 1 | 44.6 | 2.43 | 33.2 | 0.00776 | 7.04 ± 1.29 | 0.0243 | 41.5 ± 2.35 | 0.542 | 0.60 | 101 |  |
| H-Y[Aib]QGT[αMePhe(2-F)]TSD[4Pal]SILLDKK([γGlu-γGlu-C18 diacid])AQ[Aib]AFIEYLEEGGPSSGAPPPSGTGE-NH2 [Example 510] | 564 |  | 0.71 |  | 74.2 | 0.7 | 5.09 | 5.17 | 126 | 2 | 47 | 5.44 | 11.8 | 0.0627 | 14.5 ± 3.42 | 0.0119 | 55.9 ± 13.2 | 6.4 |  | 113 |  |
| H-Y[Aib]QGT[αMePhe(2-F)]TSD[4Pal][αMeS]ILLD[Orn]K([γGlu-γGlu-C18 diacid])AQ[Aib][Orn]FI[dE]YLIEGGPSSGEPPPSGTGE-NH2 [Example 548] | 295 |  | 0.478 |  | 38 | 0.6 | 3.58 | 2.7 | 75.7 | 1.5 | 45 | 3.94 | 17.8 | 0.0547 | 10.5 ± 1.58 | 0.0162 | 53.2 ± 0.603 | 3.48 |  | 109 |  |
